Tested on: PC-3 human prostate cancer cells
Assay: Co-administration of Cryptophycin Payload with CTX or iRGD in subcutaneous PC-3 xenograft model
Assay type: in vivo, mouse
Conditions: iRGD + Cryptophycin Payload 0.2 mg/kg (data not shown)

iRGD: tumor-penetrating peptide iRGD (CRGDK/RGPD/EC) (SEQ ID NO: 202)
Effect of co-administration on tumor re-growth versus Cryptophycin Payload alone: re-growth of tumors was not shown to be significantly different
